Series [1] concerns Colinus virginianus. As to conditions: for LD50: acute, oral, mortality; for NOEL: reproduction developmental.
For series [2], the system named is Rattus norvegicus. The conditions noted are these: for LD50: mortality.
Series [3] deals with Aphidius rhopalosiphi. Nature of the series: LR50; higher = less toxic. As to conditions: acute; duration: 48 hours; mortality.
The subject of series [4] is Typhlodromus pyri. Put plainly: LR50; higher = less toxic. The conditions noted are these: acute; duration: 14 days; mortality.
In series [5] the test system is Apis mellifera. The conditions noted are these: acute; duration: 48 hours; dermal; mortality.
The test system of series [6] is Oncorhynchus mykiss. As to conditions: chronic/long-term; duration: 28 days; growth.
In series [7] the test system is Plant. As to conditions: not reported; seedling emergence.
The test system of series [8] is Bibionidae. The conditions noted are these: chronic/long-term; duration: 28 days.
Series [9] concerns Leuciscus idus. The conditions noted are these: acute; duration: 96 hours; mortality.
Series [10] has as its system Tagia sp.
Series [11] has as its system Daphnia magna. As to conditions: chronic/long-term; duration: 21 days; reproduction.

Converted amounts (≈) assume the structure as drawn. Some results are limits rather than exact numbers.

Regarding `NC(Cc1ncn[nH]1)C(=O)O` (centres undefined) [1,2,4-Triazole-3-alanine], the LD50 is 1310 mg/kg-day in series [1] (diet); above 5000 mg/kg-day in [1]; above 5000 mg/kg-day in [2] (acute, oral).
Regarding `c1nc[nH]n1` [1H-1,2,4-Triazole], the LD50 in series [2] (acute, oral) is 1650 mg/kg-day.
On to `CC(C)(C)C(=O)C(Oc1ccc(Cl)cc1)n1cncn1` (centres undefined) [Triadimefon], for which the NOEL in series [1] came to 43.5 mg/kg-day.
Broadly, the NOAEL is the highest dose or exposure tested at which no adverse effect was seen. Regarding `CC(C)(C)C(O)C(Oc1ccc(Cl)cc1)n1cncn1` (centres undefined) [Triadimenol], the LR50 in [3] and in [4] was above 1250 g/ha in each case. In addition, the LD50 was above 200 µg/piece in series [5]; above 705 mg/kg-day in series [1] (diet); above 2000 mg/kg-day in [1]; 689 mg/kg-day in series [2] (acute, oral, M). The NOEC is 3.13 mg/L in series [6], 0.1 mg/L in series [8], 100 mg/kg in series [10] (chronic/long-term) and 0.1 mg/L in series [11]. For the same molecule, in series [7], the LEL came to 125 g/ha. Also, the LC50 in [9] turned out to be 17.4 µg/mL (≈ 58.8 µM); in series [10] (acute, mortality), 781 mg/kg. The NOEL in [1] was 7.5 mg/kg-day; in series [2] (reproduction developmental, M, growth), 8.88 mg/kg-day. The no-observed-adverse-effect level (NOAEL) in series [2] (acute, oral, clinical signs) worked out at 2 mg/kg-day; in [2] (chronic, duration: 2 years, organ weight), 5 mg/kg-day; in [2] (reproduction developmental, body weight), 6 mg/kg-day; in series [2] (subchronic, clinical signs), 3.4 mg/kg-day.

The values are drawn from EPA's ToxValDB 9.5 (doi:10.2903/j.efsa.2008.177r).
